Assays:
BCL2 WT = BCL2 WT (Homo sapiens (Human), UniProt P10415); assay: TR-FRET competitive binding assay, BCL2 WT; details: Ki determined from IC50, read-out: TR_FRET EKI_Bcl2 WT
Method in brief: (§1)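 Terbium-labelled N-terminal Halo-fusion BCL2 or BCLXL (E. coli), 0.5 nM, competed against fluorescein-labelled PUMA peptide (2 or 20 nM) for 2 h at 23° C in 50 mM Hepes pH 7.5, 150 mM NaCl, 5% DMSO. TR-FRET 520/495 nm ratio gave IC50 by four-parameter fit; Ki derived from IC50.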

BCL2 G101V [1] = molecular target: BCL2 G101V (Homo sapiens, UniProt P10415, G101V); assay: TR-FRET competitive binding assay, BCL2 G101V; details: BCL2 G101V; Ki determined from IC50; read-out: TR_FRET EKI_Bcl2 G101V
Method in brief: as §1

BCL2 G101V [2] = assay: TR-FRET competitive binding assay, BCL2 G101V; design: species or system human; details: ratio Ki BCL2 G101V / Ki BCL2 WT
Method in brief: as §1

BCL2 D103Y = BCL2 D103Y (Homo sapiens, UniProt P10415, D103Y); assay: TR-FRET competitive binding assay, BCL2 D103Y; details: Ki determined from IC50, read-out: TR_FRET EKI_Bcl2 D103Y
Method in brief: as §1

BCLXL WT = BCLXL WT (Homo sapiens (Human), UniProt Q07817); assay: TR-FRET competitive binding assay, BCLXL WT; details: for Ki: BCLXL WT, Ki determined from IC50, read-out: TR_FRET EKI BclxL; for TR_FRET EKI BCLxL/WT selectivty ratio: ratio Ki BCLxL / Ki BCL2 WT
Sequence of BCLXL WT (Q07817 other isoform, or with tags, fused parts or gaps): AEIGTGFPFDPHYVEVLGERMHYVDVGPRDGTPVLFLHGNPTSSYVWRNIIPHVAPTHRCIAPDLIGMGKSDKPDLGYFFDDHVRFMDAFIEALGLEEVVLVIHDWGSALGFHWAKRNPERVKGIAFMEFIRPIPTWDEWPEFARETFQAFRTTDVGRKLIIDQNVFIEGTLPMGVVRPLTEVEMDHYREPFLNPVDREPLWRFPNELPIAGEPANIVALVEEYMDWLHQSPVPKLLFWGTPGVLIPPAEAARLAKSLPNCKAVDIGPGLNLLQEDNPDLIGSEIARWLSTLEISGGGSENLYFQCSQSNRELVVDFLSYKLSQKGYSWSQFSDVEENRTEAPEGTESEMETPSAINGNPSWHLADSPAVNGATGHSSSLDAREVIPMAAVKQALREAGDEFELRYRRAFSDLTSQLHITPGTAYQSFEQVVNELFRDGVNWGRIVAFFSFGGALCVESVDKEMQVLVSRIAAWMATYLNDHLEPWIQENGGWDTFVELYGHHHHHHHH
Method in brief: as §1

KMS-12-PE Bcl-2 WT = assay: In vitro cytotoxicity CellTiter-Glo 48 h, KMS-12-PE Bcl-2 WT; type: cell-based; details: Homo sapiens, KMS-12-PE, C50 = concentration needed to reach 50% of the cellular viability
Method in brief: (§2)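 KMS-12-PE myeloma cells were lentivirally transduced with wild-type or G101V-mutant Bcl-2 and sorted by TagRFP. They were exposed to compounds as 11-point dose responses for 48 h at 37 °C, 5% CO2. Viability was read by CellTiter-Glo ATP luminescence, and C50 was the concentration giving 50% viability.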

KMS-12-PE Bcl-2 G101V = assay: In vitro cytotoxicity CellTiter-Glo 48 h, KMS-12-PE Bcl-2 G101V; type: cell-based; details: for Ratio (G101V/WT): C50 KMS-12-PE Bcl-2 G101V over C50 KMS-12-PE Bcl-2 WT; for IC50: Homo sapiens, KMS-12-PE, 48 h, CellTiter-Glo, C50 = concentration needed to reach 50% of the cellular viability
Method in brief: as §2

Ki (BCL2 WT) | Ki (BCL2 G101V [1]) | TR_FRET EKI G101V/WT selectivty ratio (BCL2 G101V [2]) | Ki (BCL2 D103Y) | Ki (BCLXL WT) | TR_FRET EKI BCLxL/WT selectivty ratio (BCLXL WT) | SMILES | IC50 (KMS-12-PE Bcl-2 WT) | Ratio (G101V/WT) (KMS-12-PE Bcl-2 G101V) | IC50 (KMS-12-PE Bcl-2 G101V)
0.13 nM | 0.5 nM | 3.7 | 0.28 nM | 1.4 nM | 10.8 | Cc1c(N(C(=O)c2cc(-c3cc4c(cc3C(=O)N3Cc5ccccc5C[C@H]3C)CN(C(=O)Cc3ccc(OCCN5CCOC(C)C5)cc3F)CC4)n(C)c2C)c2ccc(O)cc2)cc(C#N)n1C (single isomer, unassigned) [Example 75, N-(5-cyano-1,2-dimethyl-1H-pyrrol-3-yl)-5-[2-(2-{2-fluoro-4-[2-((2S or R)-2-methylmorpholin-4-yl)ethoxy]phenyl}acetyl)-7-[(3R)-3-methyl-1,2,3,4-tetrahydroisoquinoline-2-carbonyl]-1,2,3,4-tetrahydroisoquinolin-6-yl]-N-(4-hydroxyphenyl)-1,2-dimethyl-1H-pyrrole-3-carboxamide] | 0.0037 µM | 3.93 | 0.0147 µM
0.05 nM | 0.2 nM | 4.0 | 0.1 nM | 2.7 nM | 50.9 | Cc1c(N(C(=O)c2cc(-c3cc4c(cc3C(=O)N3Cc5ccccc5C[C@H]3CN3CC[C@@H](C)C3)CN(C(=O)Cc3ccc(OCCN5CCOCC5)cc3F)CC4)n(C)c2C)c2ccc(O)cc2)cc(C#N)n1C [Example 156, N-(5-cyano-1,2-dimethylpyrrol-3-yl)-5-[2-(2-{2-fluoro-4-[2-(morpholin-4-yl)ethoxy]phenyl}acetyl)-7-{[(3S)-3-{[(3R)-3-methylpyrrolidin-1-yl]methyl}-3,4-dihydro-1H-isoquinolin-2-yl]carbonyl}-3,4-dihydro-1H-isoquinolin-6-yl]-N-(4-hydroxyphenyl)-1,2-dimethylpyrrole-3-carboxamide] | 0.0154 µM | 5.2662 | 0.0811 µM
0.11 nM | 0.9 nM | 8.4 | 0.29 nM | 2.3 nM | 20.9 | Cc1c(N(C(=O)c2cc(-c3cc4c(cc3C(=O)N3Cc5ccccc5C[C@H]3C)CN(C(=O)Cc3ccc([C@H]5C[C@@H]5N5CCOCC5)cc3F)CC4)n(C)c2C)c2ccc(O)cc2)cc(C#N)n1C (single isomer, unassigned) [Example 70, N-(5-cyano-1,2-dimethyl-pyrrol-3-yl)-5-[2-[2-[2-fluoro-4-[(1S,2R) or (1R,2S)-2-morpholinocyclopropyl]phenyl]acetyl]-7-[(3R)-3-methyl-3,4-dihydro-1H-isoquinoline-2-carbonyl]-3,4-dihydro-1H-isoquinolin-6-yl]-N-(4-hydroxyphenyl)-1,2-dimethyl-pyrrole-3-carboxamide] | 0.0076 µM | 8.32 | 0.0629 µM
0.05 nM | 0.3 nM | 5.6 | 0.1 nM | 7.1 nM | 134.0 | Cc1c(N(C(=O)c2cc(-c3cc4c(cc3C(=O)N3Cc5ccccc5C[C@H]3CN3CCCCC3)CN(C(=O)Cc3ccc(OCCN5CCN(CC(F)F)CC5)cc3)CC4)n(C)c2C)c2ccc(O)cc2)cc(C#N)n1C [Example 112, N-(5-cyano-1,2-dimethylpyrrol-3-yl)-5-{2-[2-(4-{2-[4-(2,2-difluoroethyl)piperazin-1-yl]ethoxy}phenyl)acetyl]-7-{[(3S)-3-(piperidin-1-ylmethyl)-3,4-dihydro-1H-isoquinolin-2-yl]carbonyl}-3,4-dihydro-1H-isoquinolin-6-yl}-N-(4-hydroxyphenyl)-1,2-dimethylpyrrole-3-carboxamide] | 0.0124 µM | 5.7 | 0.0707 µM
0.3 nM | 1.3 nM | 4.3 | 1.06 nM | 4.5 nM | 15.0 | Cc1c(N(C(=O)c2cc(-c3cc4c(cc3C(=O)N3Cc5ccccc5C[C@H]3COCC3CC3)CN(C(=O)Cc3ccc(OCCN5CCOCC5)cc3F)CC4)n(C)c2C)c2ccc(O)cc2)cc(C#N)n1C [Example 170, N-(5-cyano-1,2-dimethyl-pyrrol-3-yl)-5-[7-[(3S)-3-(cyclopropylmethoxymethyl)-3,4-dihydro-1H-isoquinoline-2-carbonyl]-2-[2-[2-fluoro-4-(2-morpholinoethoxy)phenyl]acetyl]-3,4-dihydro-1H-isoquinolin-6-yl]-N-(4-hydroxyphenyl)-1,2-dimethyl-pyrrole-3-carboxamide] | 0.0047 µM | 6.4831 | 0.0306 µM
0.03 nM | 0.9 nM | 30.7 | 0.11 nM | 8.5 nM | 303.6 | Cc1c(N(C(=O)c2cc(-c3cc4c(cc3C(=O)N3Cc5ccccc5C[C@H]3CN3CCCCC3)CN(C(=O)Cc3ccc(OCCN5CCOCC5)cc3F)CC4)n(C)c2C)c2ccccc2)cc(C#N)n1C [Example 92, N-(5-cyano-1,2-dimethyl-pyrrol-3-yl)-5-[2-[2-[2-fluoro-4-(2-morpholinoethoxy)phenyl]acetyl]-7-[(3S)-3-(1-piperidylmethyl)-3,4-dihydro-1H-isoquinoline-2-carbonyl]-3,4-dihydro-1H-isoquinolin-6-yl]-1,2-dimethyl-N-phenyl-pyrrole-3-carboxamide] | 0.0085 µM | 11.7 | 0.0974 µM

Reference: patent US20250179047A1, “5-[7-(3,4-DIHYDRO-1H-ISOQUINOLINE-2-CARBONYL)-1,2,3,4 TETRAHYDROISOQUINOLIN-6-YL]-1H-PYRROLE-3-CARBOXAMIDE DERIVATIVES, PHARMACEUTICAL COMPOSITIONS CONTAINING THEM AND THEIR USES AS PRO-APOPTOTIC AGENTS” (LES LABORATOIRES SERVIER, priority 2022, published 2025)
